Results: patent publication US20220325301A1, “AUXOTROPHIC SELECTION METHODS” (AUXOLYTIC LTD, priority 2019, published 2022)

How the values were obtained:
UMPS knockout cells [1] = test: Selection of cells re-expressing UMPS in a UMPS-/- background (% mCherry+ by flow cytometry); type: cell-based; conditions: after 14 days in culture
Experimental: A construct (SEQ ID NO: 42) expressing mCherry and UMPS separated by a 2A linker sequence under control of a constitutive promoter (EF1a) delivered via DNA vector was inserted by electroporation into the CCR5 locus targeted using homologous recombination arms. Cells were grown in the presence of uridine to alleviate any selection pressure, then uridine was removed to select for cells successfully re-expressing UMPS. Cells were sorted by expression of mCherry using flow cytometry. After 14 days in culture, % mCherry+ cells was approximately 20% in the presence of uridine; % mCherry+ cells was approximately 90% in the absence of uridine.

[2] = system: UMPS knockout H9 human embryonic stem cells (hESCs); test: Lineage-specific auxotrophy during beta cell differentiation (GFP ratio in mCherry-off vs mCherry-on cells, fluorescence microscopy); type: cell-based; conditions: uridine withdrawal at day 12
Source text: As a proof of concept, UMPS knockout cells were engineered to express insulin and were differentiated to pancreatic progenitor cells using an appropriate method as described, for example, in Ma et al. (2018), Pagliuca et al. (2014), and/or Rezania et al. (2014) discussed and incorporated herein. The UMPS gene was knocked out in H9 human embryonic stem cells (hESCs) according to the methods described herein. A GFP-Luciferase expression construct under regulation of a constitutive promoter was integrated by homologous recombination into the HBB locus (see, for example, Dever, Daniel P., et al. “CRISPR/Cas9 β-globin gene targeting in human haematopoietic stem cells.” Nature 539.7629 (2016): 384-389, the contents of which are incorporated herein by reference in their entirety). […] Cells were monitored and assessed for mCherry and UMPS expression on subsequent days up to day 25. The differentiation protocol was followed with cells either in the continuous presence of uridine through day 18 or through the end of the culture period, or through only day 12 (during Stage 4). mCherry and UMPS expression were assessed. An mCherry on vs. off threshold was defined to identify UMPS expressing cells (given UMPS expression is coupled to mCherry) using thresholding based on fluorescence images. […]
Therefore, expression of GFP in mCherry negative cells, when uridine is present, was expected to be higher than the expression of GFP in mCherry negative cells when uridine is absent. […] The results are shown in Table 7, where the “Auxotrophy Metric” was calculated as the mean GFP ratio in uridine-withdrawn conditions divided by the mean GFP ratio in uridine-continued conditions: [(mean GFP(mCherry-Off)/mean GFP(mCherry-On)) uridine-withdrawn-conditions]/[(mean GFP(mCherry-Off)/mean GFP(mCherry-On)) uridine-continued conditions].

UMPS knockout cells [3] = test: Split auxotrophy: selection of dual transgene integration (CD19/mCherry flow cytometry); type: cell-based, human; conditions: day 16
Experimental: The UMPS locus is disrupted in the hESCs by electroporation of Cas9 RNP to insert an expression control sequence comprising a tissue-specific promoter into the genomic locus. The promoter will begin to instigate transcription due to interaction with endothelial tissue. For gene editing, hESCs are treated with 10 μm ROCK inhibitor (Y-27632) for 24 hours before electroporation. Cells at 70-80% confluence are harvested with ACCUTASE® solution (Life Technologies). 500,000 cells were used per reaction with a SpCas9 concentration of 150 μg/mL (Integrated DNA Technologies) and a Cas9:sgRNA molar ratio of 1:3 and electroporation performed in P3 Primary Cell solution (Lonza) in 16-well NUCLEOCUVETTE™ Strips in the 4D NUCLEOFECTOR system (Lonza). Immediately after electroporation, cells are transferred into one well of a MATRIGEL® protein mixture (Corning, Inc.)-coated 24 well plate containing 500 μl of mTeSR™ media (STEMCELL Technologies) with 10 μM Y-27632. Media was changed 24 hours after editing and Y-27632 is removed 48 hours after.
Independent functional domains of UMPS, i.e. OPRT and ODC, are reintroduced into UMPS knockout cells according to Example 2 using two separate vectors. A first homologous recombination donor vector carrying OPRT and mCherry (SEQ ID NO: 43) comprises sequence encoding OPRT (SEQ ID NO: 4, encoding amino acid sequence of SEQ ID NO: 5), 2A linker (SEQ ID NO: 19, SEQ ID NO: 21, or SEQ ID NO: 23, encoding amino acid sequences of SEQ ID NO: 20, SEQ ID NO: 22, and SEQ ID NO: 24, respectively), and sequence encoding mCherry fluorescent protein (SEQ ID NO: 34 or SEQ ID NO: 35, each encoding amino acid sequence of SEQ ID NO: 36). Homologous recombination donor vector carrying ODC and CD19 (SEQ ID NO: 44) comprises sequence encoding tCD19 (SEQ ID NO: 37, encoding amino acid sequence of SEQ ID NO: 38), 2A linker, and sequence encoding ODC (SEQ ID NO: 6, encoding amino acid sequence of SEQ ID NO: 7). Expression of OPRT and ODC constructs can be driven by a eukaryotic promoter such as EF1a (SEQ ID NO: 31 or SEQ ID NO: 32). Homologous recombination vectors are co-targeted for integration into safe harbor locus CCR5 (using, for example, CCR5 left and right homology arms selected from SEQ ID NOs: 11-15 as described herein). Homologous recombination vectors can further include termination signals such as a bGH-PolyA termination signal (SEQ ID NO: 39 or SEQ ID NO: 40). Cells are cultured with and without uridine, and the percent of cells expressing both CD19 and mCherry (CD19+/mCherry+) is measured by flow cytometry over time.

SEQ ID NO: 42: construct expressing mCherry and UMPS separated by a 2A linker under constitutive EF1a promoter, inserted into the CCR5 locus of UMPS knockout cells
% mCherry+ cells (UMPS knockout cells [1]; in the absence of uridine): approximately 90%
% mCherry+ cells (UMPS knockout cells [1]; in the presence of uridine): approximately 20%

INS-mCherry-UMPS: tricistronic construct expressing insulin, mCherry and UMPS under endogenous insulin regulatory control sequences, integrated into the insulin locus
Auxotrophy Metric (mean GFP ratio mCherry-Off/mCherry-On, uridine-withdrawn divided by uridine-continued) ([2]; culture day 12): 0.9904
Auxotrophy Metric (mean GFP ratio mCherry-Off/mCherry-On, uridine-withdrawn divided by uridine-continued) ([2]; culture day 18): 0.9827
Auxotrophy Metric (mean GFP ratio mCherry-Off/mCherry-On, uridine-withdrawn divided by uridine-continued) ([2]; culture day 25): 0.7261

Split UMPS: two homologous recombination donor vectors, OPRT and mCherry (SEQ ID NO: 43) and ODC and CD19 (SEQ ID NO: 44), co-targeted to CCR5
% CD19+ only (UMPS knockout cells [3]; +Uridine): 1.2%
% CD19+/mCherry+ (UMPS knockout cells [3]; +Uridine): 0.3%
% CD19-/mCherry- (UMPS knockout cells [3]; +Uridine): 92.9%
% mCherry+ only (UMPS knockout cells [3]; +Uridine): 5.6%
% CD19+ only (UMPS knockout cells [3]; No Uridine): 0.1%
% CD19+/mCherry+ (UMPS knockout cells [3]; No Uridine): 94.7%
% CD19-/mCherry- (UMPS knockout cells [3]; No Uridine): 0.1%
% mCherry+ only (UMPS knockout cells [3]; No Uridine): 5.1%
